We go through 15 compounds from patent publication US9926297B2, “Bicyclic AZA compounds as muscarinic M1 receptor and/or M4 receptor agonists” (Heptares Therapeutics Limited, priority 2014, dated 2018).

Some results are limits rather than exact numbers.

Assay [1] concerns the target T1, human muscarinic M1 receptor (Homo sapiens, UniProt P11229).
T1 sequence (P11229 1-460): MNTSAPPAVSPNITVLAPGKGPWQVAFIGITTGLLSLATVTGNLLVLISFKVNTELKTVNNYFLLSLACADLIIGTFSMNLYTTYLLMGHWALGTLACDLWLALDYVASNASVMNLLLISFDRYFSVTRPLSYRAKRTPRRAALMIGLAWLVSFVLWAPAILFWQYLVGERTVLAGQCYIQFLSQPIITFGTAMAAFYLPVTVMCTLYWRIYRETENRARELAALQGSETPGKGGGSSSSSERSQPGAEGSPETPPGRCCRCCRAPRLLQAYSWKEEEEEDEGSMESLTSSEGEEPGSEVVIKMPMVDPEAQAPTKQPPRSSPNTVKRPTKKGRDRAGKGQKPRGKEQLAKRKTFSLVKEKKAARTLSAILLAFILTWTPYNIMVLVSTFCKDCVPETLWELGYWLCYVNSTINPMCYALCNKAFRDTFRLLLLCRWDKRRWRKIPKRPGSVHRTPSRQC
The assay can be described thus: Alphascreen Surefire phospho-ERK1/2 functional assay, M1. The assay is classed as cell-based. The settings on record: for EC50 / % Emax cf. ACh, M1: CHO cells stably expressing human M1; for EC50: phospho-ERK1/2, * = variable results, read-out: pEC50 M1 (converted); for Emax: CHO, read-out: % Emax cf. ACh, M1, CHO cells stably expressing human M1; for Emax / % Emax cf. ACh, M1: relative to ACh.

Assay [2] deals with T2, human muscarinic M4 receptor (Homo sapiens, UniProt P08173).
T2 construct: expressed in transfected cells
T2 sequence (P08173 1-479): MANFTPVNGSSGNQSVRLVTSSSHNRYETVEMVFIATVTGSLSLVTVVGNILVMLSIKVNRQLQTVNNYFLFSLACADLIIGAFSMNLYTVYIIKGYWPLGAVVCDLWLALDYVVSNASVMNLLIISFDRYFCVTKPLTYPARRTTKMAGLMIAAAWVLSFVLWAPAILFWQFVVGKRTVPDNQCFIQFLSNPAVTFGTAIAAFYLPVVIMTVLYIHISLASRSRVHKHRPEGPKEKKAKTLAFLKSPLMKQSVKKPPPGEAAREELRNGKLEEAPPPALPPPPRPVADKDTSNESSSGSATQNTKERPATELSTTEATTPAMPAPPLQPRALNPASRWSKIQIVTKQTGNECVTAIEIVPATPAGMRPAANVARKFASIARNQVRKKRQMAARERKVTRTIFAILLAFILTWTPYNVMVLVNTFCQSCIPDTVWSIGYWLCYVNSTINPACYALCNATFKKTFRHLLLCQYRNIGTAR
The assay can be described thus: Alphascreen Surefire phospho-ERK1/2 functional assay, M4. The settings on record: for EC50 / % Emax cf. ACh, M4: CHO cells stably expressing human M4; for EC50: phospho-ERK1/2, * = variable results, read-out: pEC50 M4 (converted); for Emax: CHO, read-out: % Emax cf. ACh, M4, CHO cells stably expressing human M4; for Emax / % Emax cf. ACh, M4: relative to ACh. Type of assay: cell-based. On the technique in general: Alpha assays give light when donor and acceptor beads are brought close together.

Assay [3] deals with T3, human muscarinic M2 receptor (Homo sapiens, UniProt P08172).
T3 sequence (P08172 1-466): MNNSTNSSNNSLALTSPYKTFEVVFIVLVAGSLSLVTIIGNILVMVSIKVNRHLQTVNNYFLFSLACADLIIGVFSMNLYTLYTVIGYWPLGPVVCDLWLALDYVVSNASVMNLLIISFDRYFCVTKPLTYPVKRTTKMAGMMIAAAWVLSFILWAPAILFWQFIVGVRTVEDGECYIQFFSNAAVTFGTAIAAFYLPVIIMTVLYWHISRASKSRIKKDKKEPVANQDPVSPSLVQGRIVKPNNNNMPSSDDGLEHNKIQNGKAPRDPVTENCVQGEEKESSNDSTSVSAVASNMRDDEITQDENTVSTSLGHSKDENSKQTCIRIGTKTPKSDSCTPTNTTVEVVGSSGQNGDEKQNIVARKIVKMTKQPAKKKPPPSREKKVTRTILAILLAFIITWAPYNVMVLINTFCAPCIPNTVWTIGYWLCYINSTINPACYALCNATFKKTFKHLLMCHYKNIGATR
The assay can be described thus: Alphascreen Surefire phospho-ERK1/2 functional assay, M2. The settings on record: for Emax: CHO, read-out: % Emax cf. ACh, M2, CHO cells stably expressing human M2; for Emax / % Emax cf. ACh, M2: relative to ACh; for pEC50 M2 / % Emax cf. ACh, M2: CHO cells stably expressing human M2; for pEC50 M2: phospho-ERK1/2, * = variable results.

The target in assay [4] is human muscarinic M3 receptor (Homo sapiens, UniProt P20309). The assay can be described thus: Alphascreen Surefire phospho-ERK1/2 functional assay, M3. Conditions: for Emax: CHO, read-out: % Emax cf. ACh, M3, CHO cells stably expressing human M3; for Emax / % Emax cf. ACh, M3: relative to ACh; for EC50: pEC50 M3, CHO cells stably expressing human M3; for EC50 / pEC50 M3: phospho-ERK1/2, * = variable results; for pEC50 M3 / % Emax cf. ACh, M3: CHO cells stably expressing human M3.
human muscarinic M3 receptor, sequence (P20309 whole entry): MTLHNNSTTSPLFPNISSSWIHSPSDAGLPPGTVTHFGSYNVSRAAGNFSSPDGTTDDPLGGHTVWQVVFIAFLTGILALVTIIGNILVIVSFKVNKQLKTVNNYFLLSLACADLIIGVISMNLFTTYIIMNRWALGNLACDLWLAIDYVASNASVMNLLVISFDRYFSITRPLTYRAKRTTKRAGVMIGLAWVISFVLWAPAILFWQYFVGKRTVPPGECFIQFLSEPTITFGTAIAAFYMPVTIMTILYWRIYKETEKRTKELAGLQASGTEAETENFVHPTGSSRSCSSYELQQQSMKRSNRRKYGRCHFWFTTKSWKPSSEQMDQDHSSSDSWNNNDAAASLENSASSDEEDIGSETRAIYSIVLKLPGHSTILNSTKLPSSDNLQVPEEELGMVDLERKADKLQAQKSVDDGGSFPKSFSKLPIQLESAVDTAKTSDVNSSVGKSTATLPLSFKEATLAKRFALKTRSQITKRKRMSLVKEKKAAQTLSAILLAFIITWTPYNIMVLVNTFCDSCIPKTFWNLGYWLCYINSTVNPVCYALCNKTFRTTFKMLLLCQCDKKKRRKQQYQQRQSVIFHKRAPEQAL

One may read the Emax as the greatest response seen or fitted, relative to the assay's reference. `CCOC(=O)N1CCC2(CC(N3CCC([C@@H]4CCCN4C(=O)N4CCOCC4)CC3)C2)C1` (single isomer, unassigned) [2-28 Isomer 2]: the EC50 in assay [1] was above 20000 nM; in assay [2] it was 25.1 nM; in assay [3], above 20000 nM; in assay [4] it was above 20000 nM. The Emax in assay [1] was found to be 7%; in assay [2], 63%; in assay [3], 3%; in assay [4], 5%.
For the compound `CCOC(=O)N1CCC2(CC(N3CCC([C@@H]4CCCN4C(=O)NC4CC4)CC3)C2)C1` (single isomer, unassigned) [2-29 Isomer 2], the EC50 in assay [1] is 501 nM; in assay [2], 15.8 nM; in assay [3], above 20000 nM; in assay [4], above 20000 nM. Further, the Emax in assay [1] was determined as 60%; in assay [2] it was 110%; in assay [3], 5%; in assay [4] it was 13%.
Turning to `CCOC(=O)N1CCC2(CC(N3CCC([C@@H]4CCCN4C(=O)NC4CCC4)CC3)C2)C1` (single isomer, unassigned) [2-30 Isomer 2], the EC50 in assay [1] is 501 nM; in assay [2] it was 15.8 nM; in assay [3], above 20000 nM; in assay [4] it was above 20000 nM. Further, the Emax in assay [1] was found to be 34%; in assay [2] it was 97%; in assay [3], 52%; in assay [4], 13%.
As for `CCOC(=O)N1CCC2(CC(N3CCC([C@@H]4CCCN4C(=O)NCCOC)CC3)C2)C1` (single isomer, unassigned) [2-31 Isomer 2], the EC50 was 126 nM in assay [1], 3.16 nM in assay [2], above 20000 nM in assay [3] and above 20000 nM in assay [4]. The Emax was determined as 93% in assay [1], 108% in assay [2], 7% in assay [3] and 7% in assay [4].
With `CCOC(=O)N1CCC2(CC(N3CCC([C@@H]4CCCN4C(=O)N4CCCC4)CC3)C2)C1` (single isomer, unassigned) [2-32 Isomer 2], the EC50 was 2510 nM in assay [1], 12.6 nM in assay [2], above 20000 nM in assay [3] and above 20000 nM in assay [4]. Also, the Emax was 69% in assay [1], 110% in assay [2], 52% in assay [3] and 11% in assay [4].
In the case of `CCOC(=O)N1CCC2(CC(N3CCC([C@@H]4CCCN4C(=O)NOC)CC3)C2)C1` (single isomer, unassigned) [2-33 Isomer 1], the EC50 was 398 nM in assay [1], 7.94 nM in assay [2], above 20000 nM in assay [3] and above 20000 nM in assay [4]. The “% Emax cf. ACh, M1” value in assay [1] was determined as 86%. Further, in assay [2], the “% Emax cf. ACh, M4” value came out at 109%. The Emax in assay [3] came to 8%; in assay [4], 3%.
For `CCOC(=O)N1CCC2(CC(N3CCC([C@@H]4CCCN4C(=O)NOC)CC3)C2)C1` (single isomer, unassigned) [2-33 Isomer 2], in assay [1], the EC50 was above 20000 nM and the “% Emax cf. ACh, M1” value was 4%. In assay [2], the EC50 is 20 nM and the “% Emax cf. ACh, M4” value turned out to be 65%. In addition, in assay [3], the “pEC50 M2” value is below 4.7 and the “% Emax cf. ACh, M2” value was 5%. Besides, in assay [4], the “pEC50 M3” value is given as below 4.7 and the “% Emax cf. ACh, M3” value was determined as 5%.
On to `CCOC(=O)N1CCC2(CC(N3CCC([C@@H]4CCCN4C(=O)N(C)OC)CC3)C2)C1` (single isomer, unassigned) [2-34 Isomer 1], for which, in assay [1], the EC50 is 2000 nM and the Emax amounted to 74%. In assay [2], the EC50 is 25.1 nM and the “% Emax cf. ACh, M4” value amounted to 89%. In addition, in assay [3], the EC50 was above 20000 nM and the “% Emax cf. ACh, M2” value was 16%. In addition, in assay [4], the “% Emax cf. ACh, M3” value was determined as 8% and the EC50 is above 20000 nM.
`CCOC(=O)N1CCC2(CC(N3CCC([C@@H]4CCCN4C(=O)N(C)OC)CC3)C2)C1` (single isomer, unassigned) [2-34 Isomer 2]: in assay [1], the EC50 was 3160 nM and the “% Emax cf. ACh, M1” value is listed as 56%. In addition, in assay [2], the EC50 was 251 nM and the “% Emax cf. ACh, M4” value is on record as 58%. In assay [3], the “pEC50 M2” value was below 4.7 and the “% Emax cf. ACh, M2” value is 3%. In assay [4], the “pEC50 M3” value is below 4.7 and the “% Emax cf. ACh, M3” value was determined as 39%.
With `CCOC(=O)N1CCC2(CC(N3CCC([C@@H]4CCCN4C(=O)NC4(C)CCC4)CC3)C2)C1` (single isomer, unassigned) [2-35 Isomer 2], the EC50 is 398 nM in assay [1], 15.8 nM in assay [2], above 20000 nM in assay [3] and above 20000 nM in assay [4]. For the same compound, the Emax worked out at 108% in assay [1], 92% in assay [2], 1% in assay [3] and 4% in assay [4].
For `CCOC(=O)N1CCC2(CC(N3CCC([C@@H]4CCCN4C(=O)NC4(C)COC4)CC3)C2)C1` (single isomer, unassigned) [2-36 Isomer 2], the EC50 is 158 nM in assay [1], 6.31 nM in assay [2], above 20000 nM in assay [3] and above 20000 nM in assay [4]. Also, the Emax was found to be 89% in assay [1], 113% in assay [2], 3% in assay [3] and 5% in assay [4].
Turning to `CCOC(=O)N1CCC2(CC(N3CCC([C@@H]4CCCN4C(=O)N4CCC(F)(F)C4)CC3)C2)C1` (single isomer, unassigned) [2-37 Isomer 2], the EC50 in assay [1] was 3160 nM; in assay [2], 20 nM; in assay [3] it was above 20000 nM; in assay [4] it was above 20000 nM. For the same compound, the Emax turned out to be 106% in assay [1], 83% in assay [2], 33% in assay [3] and 58% in assay [4].
For the compound `CCOC(=O)N1CCC2(CC(N3CCC([C@@H]4CCCN4C(=O)NC4CC(F)(F)C4)CC3)C2)C1` (single isomer, unassigned) [2-38 Isomer 2], the EC50 in assay [1] was 158 nM; in assay [2], 5.01 nM; in assay [3], above 20000 nM; in assay [4], above 20000 nM. The Emax in assay [1] worked out at 110%; in assay [2], 115%; in assay [3] it was 1%; in assay [4], 2%.
On to `CCOC(=O)N1CCC2(CC(N3CCC([C@@H]4CCCN4C(=O)N4CC(F)(F)C4)CC3)C2)C1` (single isomer, unassigned) [2-39 Isomer 2], for which the EC50 is 2510 nM in assay [1], 15.8 nM in assay [2], above 20000 nM in assay [3] and above 20000 nM in assay [4]. For the same compound, the Emax is 41% in assay [1], 76% in assay [2], 1% in assay [3] and 1% in assay [4].
Regarding `COC(=O)N1CCC2(CC(N3CCC([C@@H]4CCCN4C(=O)NCC(F)(F)F)CC3)C2)C1` (single isomer, unassigned) [2-40 Isomer 2], the EC50 in assay [1] is 794 nM; in assay [2], 31.6 nM; in assay [3] it was above 20000 nM; in assay [4], above 20000 nM. Moreover, the Emax in assay [1] was 78%; in assay [2], 90%; in assay [3], 2%; in assay [4], 1%.
